The record followed here is PMC4894409 (Scientific Reports, 2015).

Where two headings read alike, the source gives them in different places.

In data set [1] the test system is mice. Particulars: mouse, in vivo; for behavioural observation: male, Swiss. As to the method:
A modified method that was adopted by Malone[57] was used in the present study to evaluate general pharmacological alterations in mice following administration of D1. This test permits the observation of behavioural change, report of possible toxic effect or death occurrence in addition to variations in pharmacological responses to different route of drug administrations. Group of animals were subjected to s.c, i.p, or p.o route of D1 administrations at the doses of 2, 10, 50 or 250 mg/kg or vehicle 10 mL/kg and observed for 7 days.

A further data set deals with T1, recombinant human MAO-B (Homo sapiens, UniProt P27338).
T1 construct: purchased BD Biosciences Bedford, MA, USA
T1 sequence (P27338 1-520): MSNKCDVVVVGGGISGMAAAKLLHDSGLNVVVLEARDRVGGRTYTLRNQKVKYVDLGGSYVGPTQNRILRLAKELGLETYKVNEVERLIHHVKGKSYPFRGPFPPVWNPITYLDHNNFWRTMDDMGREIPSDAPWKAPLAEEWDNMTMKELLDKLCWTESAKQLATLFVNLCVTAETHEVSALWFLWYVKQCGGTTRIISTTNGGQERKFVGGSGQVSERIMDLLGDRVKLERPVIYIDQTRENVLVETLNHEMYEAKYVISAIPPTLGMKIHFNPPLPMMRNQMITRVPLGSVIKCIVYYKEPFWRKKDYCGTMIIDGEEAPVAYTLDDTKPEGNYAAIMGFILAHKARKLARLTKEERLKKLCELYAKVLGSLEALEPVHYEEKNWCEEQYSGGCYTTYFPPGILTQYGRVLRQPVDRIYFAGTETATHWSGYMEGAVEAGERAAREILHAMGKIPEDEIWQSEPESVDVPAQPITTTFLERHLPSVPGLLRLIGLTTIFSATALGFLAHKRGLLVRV
Description: Kynuramine deamination inhibition assay, MAO-B. It is filed as biochemical. The conditions noted are these: 50 μM kynuramine, pH 7.4, 37 °C. On the procedure: The assay was performed with the addition of inhibitor. Inhibition was calculated as percent of product formation compared to the corresponding control (enzyme-substrate reaction) without the inhibitors. The reactions were carried out in 0.1 M potassium phosphate buffer at pH 7.4. […] The compounds were dissolved in DMSO. The total reaction volume was 200 μL yielding a final DMSO concentration of 1.0% in the reaction mixture.

Data set [2] concerns mice. In words: FS test after AMPT, PCPA, PRAZ or WAY pretreatment (mechanism of antidepressant-like effect of D1). It is filed as in vivo, Male Swiss mice. As to the method:
Mice were pretreated (i.p) with saline solution or AMPT 100 mg/kg (catecholamine depletor) 4 h prior to the oral administration of vehicle 10 mL/kg or D1 5 mg/kg. […] In a separate experiment, pretreatment (i.p) of mice with saline solution or PCPA 100 mg/kg (serotonin depletor) for four consecutive days prior to oral administration of vehicle or D1 5 mg/kg was used to investigate effect of serotonin depletion on antidepressant-like activity of this OAD. […] In all the four experiments, oral administration of vehicle or D1 5 mg/kg was followed by FS test (60 min interval between p.o. treatment and behavioural testing).

As usually defined, the IC50 is the concentration that gives 50% inhibition. On to `C=CC(=O)O[C@H]1CC[C@]2(C)[C@H]3CC=C4[C@@H]5CC(C)(C)CC[C@]5(C(=O)O)CC[C@@]4(C)[C@]3(C)CC[C@H]2C1(C)C` [D1, Oleanolic acid acrylate], for which the behavioural observation entry is “Total recovery from the effects of D1 without any sign of toxicity, weight gain or death occurence” in the data set with mice [1]; “Effects after 30 min of administrations persisted” in the data set with mice [1] (50 mg/kg, 1 hr); “Effects after 30 min of administrations persisted” with mice [1] (250 mg/kg, 1 hr). Also, in the data set with mice [1] (250 mg/kg), the “behavioural observation (text)” value is reported as “reduction in exploratory activity”. On recombinant human MAO-B, the IC50 was more than 100 µM. Besides, the “effect of AMPT pretreatment on antidepressant-like effect (swimming time)” value in the data set on mice [2] (AMPT 100 mg/kg i.p. + D1 5 mg/kg p.o. versus SAL + D1, p > 0.05) is given as “did not attenuate”. Besides, the “effect of PCPA pretreatment on antidepressant-like effect (swimming time)” value in the data set with mice [2] (PCPA 100 mg/kg i.p. four days + D1 5 mg/kg p.o. versus SAL + D1, p > 0.05) is listed as “did not block”. The “effect of PRAZ pretreatment on antidepressant-like effect (swimming time)” value in the data set on mice [2] (PRAZ 1 mg/kg i.p. + D1 5 mg/kg p.o. versus SAL + D1, p > 0.05) is given as “did not block”. The “swimming time in the FS test” value with mice [2] (SAL + D1 5 mg/kg p.o. versus SAL + Vehicle, p < 0.05) was “increased the swimming time”. Also, the “effect of WAY pretreatment on antidepressant-like effect (swimming time)” value with mice [2] (WAY 0.3 mg/kg i.p. + D1 5 mg/kg p.o. versus SAL + D1, p < 0.05) was “significant blockade”.
